# From ChEMBL document CHEMBL5380836, “Design and Structural Optimization of Methionine Adenosyltransferase 2A (MAT2A) Inhibitors with High In Vivo Potency and Oral Bioavailability” (J Med Chem, 2023)
# Experiments:
# [1] = biological target: S-adenosylmethionine synthase isoform type-2 (Homo sapiens, UniProt P31153); experiment: Inhibition of recombinant MAT2A (unknown origin) expressed in baculovirus infected Sf9 insect cells using L-methionine as substrate preincubated for 15 mins followed by substrate addition measured after 60 mins by Kinase-Glo Luminescent assay
# [2] = test system: HCT-116; experiment: Antiproliferative activity against human HCT-116 cells expressing MTAP-/- assessed as inhibition of cell proliferation incubated for 4 days by fluorescence based assay; assay type: functional; settings: HCT-116, 96 h
# [3] = test system: HCT-116; experiment: Antiproliferative activity against human HCT-116 cells assessed as inhibition of cell proliferation incubated for 4 days by fluorescence based assay; assay type: functional; settings: HCT-116, 96 h
# [4] = Tmax in ICR mouse at 10 mg/kg, po via gavage measured for 0.083 to 24 hrs by LC-MS analysis; assay type: ADME, organism-based; settings: in vivo, time 0.083-24 hrs
# [5] = Half life in ICR mouse at 10 mg/kg, po via gavage measured for 0.083 to 24 hrs by LC-MS analysis; assay type: ADME, organism-based; settings: in vivo, time 0.083-24 hrs
# [6] = Cmax in ICR mouse at 10 mg/kg, po via gavage measured for 0.083 to 24 hrs by LC-MS analysis; assay type: ADME, organism-based; design: time upper 24 hrs, dose 10 mg/kg, time lower 0.083 hrs, route po; settings: in vivo
# [7] = AUC in ICR mouse at 10 mg/kg, po via gavage measured for 0.083 to 24 hrs by LC-MS analysis; assay type: ADME, organism-based; design: dose 10 mg/kg, time upper 24 hrs, time lower 0.083 hrs, route po; settings: in vivo
# [8] = Clearance in ICR mouse at 1 mg/kg, iv measured for 0.083 to 24 hrs by LC-MS analysis; assay type: ADME, organism-based; settings: in vivo, time 0.083-24 hrs
# [9] = Half life in ICR mouse at 1 mg/kg, iv measured for 0.083 to 24 hrs by LC-MS analysis; assay type: ADME, organism-based; settings: in vivo, time 0.083-24 hrs
# [10] = AUC in ICR mouse at 1 mg/kg, iv measured for 0.083 to 24 hrs by LC-MS analysis; assay type: ADME, organism-based; design: time upper 24 hrs, time lower 0.083 hrs, dose 1 mg/kg, route iv; settings: in vivo
# [11] = Volume of distribution at steady state in ICR mouse at 1 mg/kg, iv measured for 0.083 to 24 hrs by LC-MS analysis; assay type: ADME, organism-based; settings: in vivo, time 0.083-24 hrs, read-out: Vdss
# [12] = Oral bioavailability in ICR mouse at 10 mg/kg administered via gavage measured for 0.083 to 24 hrs by LC-MS analysis; assay type: ADME, organism-based; settings: in vivo, time 0.083-24 hrs
# Sequence of S-adenosylmethionine synthase isoform type-2 (P31153 whole entry, canonical isoform): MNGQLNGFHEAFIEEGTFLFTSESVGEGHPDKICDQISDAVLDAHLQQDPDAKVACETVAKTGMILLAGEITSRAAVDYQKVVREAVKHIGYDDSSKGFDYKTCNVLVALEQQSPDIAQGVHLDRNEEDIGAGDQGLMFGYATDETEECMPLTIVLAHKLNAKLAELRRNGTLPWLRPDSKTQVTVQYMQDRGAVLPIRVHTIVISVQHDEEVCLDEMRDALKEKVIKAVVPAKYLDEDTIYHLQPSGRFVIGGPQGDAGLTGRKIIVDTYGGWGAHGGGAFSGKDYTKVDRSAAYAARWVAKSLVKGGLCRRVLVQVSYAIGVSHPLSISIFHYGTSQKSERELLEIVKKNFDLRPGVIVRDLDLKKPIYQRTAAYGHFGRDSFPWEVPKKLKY
IC50 [1] [nM],IC50 [2] [nM],SMILES,also measured
14,34,CN1CCn2c(nc3ccc(-c4cc5cnc(C6CC6)nc5n(-c5ccc(OC(F)F)cc5)c4=O)cc32)C1,Tmax [4]: 0.5 h; half-life [5]: 4 h; Cmax [6]: 1740 ng/mL; AUC [7]: 11400 ng·h/mL
27,84,CC(C)Oc1ncc2cc(-c3ccc4nc5n(c4c3)CCN(C)C5)c(=O)n(-c3ccc(OC(F)F)cc3)c2n1,–
18,52,CCOc1ncc2cc(-c3ccc4nc5n(c4c3)CCN(C)C5)c(=O)n(-c3ccc(OC(F)F)cc3)c2n1,clearance [8]: 17.1 mL/min/kg; half-life [9]: 2.4 h; AUC [10]: 990 ng·h/mL; Vd [11]: 2.18 L/kg; Tmax [4]: 0.83 h; half-life [5]: 3.3 h; Cmax [6]: 2300 ng/mL; AUC [7]: 11500 ng·h/mL; bioavailability [12]: 116%
34,166,CN1CCn2c(nc3ccc(-c4cc5cnc(NCC(F)(F)F)nc5n(-c5ccc(OC(F)F)cc5)c4=O)cc32)C1,–
> 1000,> 10000,CN1CCn2c(nc3ccc(-c4cc5cnc(N6CCCC6)nc5n(-c5ccc(OC(F)F)cc5)c4=O)cc32)C1,–
14,42,CCNc1ncc2cc(-c3ccc4nc5n(c4c3)CCN(C)C5)c(=O)n(-c3ccc(OC(F)F)cc3)c2n1,Tmax [4]: 0.33 h; half-life [5]: 2.9 h; Cmax [6]: 1050 ng/mL; AUC [7]: 3200 ng·h/mL

# Continued, compound first:
SMILES,IC50 [1] [nM],IC50 [2] [nM],also measured
CCOc1ncc2cc(-c3ccc4nc5n(c4c3)CCN(C)C5)c(=O)n(-c3ccc(Cl)cc3)c2n1,51,119,–
CCOc1ncc2cc(-c3ccc4ncn5c4c3OCC5)c(=O)n(-c3ccc(OC(F)F)cc3)c2n1,> 1000,> 10000,–
CCOc1ncc2cc(-c3ccc4nn5c(c4c3)C(=O)N(C)CC5)c(=O)n(-c3ccc(OC(F)F)cc3)c2n1,23,80,–
CCOc1ccc2c(=O)n(-c3ccc4nn5c(c4c3)CN(C)CC5)c(=O)n(-c3ccc(OC(F)F)cc3)c2n1,28,82,IC50 [3]: > 10000 nM
CCOc1ccc2cc(-c3ccc4nn(C)cc4c3)c(=O)n(-c3ccc(OC(F)F)cc3)c2c1,34,355,–
CCOc1ncc2cc(-c3ccc4c(c3)OCC3(CCN(C)CC3)O4)c(=O)n(-c3ccc(OC(F)F)cc3)c2n1,> 1000,> 10000,–
CCOc1ncc2cc(-c3ccc4nc5n(c4c3)CCN(C(C)=O)C5)c(=O)n(-c3ccc(OC(F)F)cc3)c2n1,52,118,–
CCOc1ncc2cc(-c3ccc4nc5n(c4c3)CCN(CC3COC3)C5)c(=O)n(-c3ccc(OC(F)F)cc3)c2n1,23,67,–
CCOc1ccc2cc(-c3ccc4c(c3)C3(CC3)CO4)c(=O)n(-c3ccc(OC(F)F)cc3)c2c1,63,315,–
